Experimental data: patent US5328834A, “Method for preparing immunoglobulin fragments” (UniSyn Technologies, Inc., priority 1989, dated 1994)
*1 amine or outer side, *2 acyl side, *3 side chain or, on linkers, in order; H or OH if unused. Where a SMILES comes first, the peptide text is derived from it. CO = O=C([*:1])[*:2]

T1: papain (Carica papaya, UniProt P00784)
T1 construct: purchased Sigma Chemical Company (St. Louis, Mo.)
T1 sequence (P00784 134-345): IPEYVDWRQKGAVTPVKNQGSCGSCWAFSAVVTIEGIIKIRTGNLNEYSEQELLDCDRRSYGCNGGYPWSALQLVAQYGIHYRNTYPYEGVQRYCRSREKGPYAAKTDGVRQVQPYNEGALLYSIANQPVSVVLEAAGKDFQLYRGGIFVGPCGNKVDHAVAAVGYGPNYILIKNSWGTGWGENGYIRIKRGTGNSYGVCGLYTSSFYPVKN

B1: Papain: soluble protease from Sigma used to digest IgG to F(ab) (protein, UniProt P00784 134-345, looked up)
Papain: T1 sequence (P00784 134-345)

Experiments:
papain = biological target: T1, papain; assay: Inhibition of papain esterolytic activity by antipain and leupeptin (BAEE substrate, pH stat); format: biochemical; settings: for effect of the presence of IgG substrate on inhibitory activity: 10 mg of human IgG present; for time to inhibit 100% of papain activity: inhibitor 0.4 mg/ml; for Time: time to the stated inhibition
Experimental: (§1) Papain activity was assayed using N-benzoyl-L-arginine ethyl ester in a pH stat and pepsin activity using hemoglobin substrate, according to the procedures given in the Worthington Enzyme Manual.
The ability of antipain and leupeptin to modify papain activity was checked with enzyme, both in the absence and in the presence of immunoglobulin substrate. A 0.5 mg aliquot of active papain was made up in the presence and in the absence of 10 mg of human IgG in 0.025M sodium phosphate buffer containing 10 mM EDTA and 50 mM cysteine (pH 6.2). To each sample, different amounts of either antipain or leupeptin were added and then incubated at 23° C. for 5 minutes. An aliquot of this enzyme was diluted in the same buffer and assayed for papain activity using BAEE as the substrate in the pH stat.

[1] = Papain activity assay using N-benzoyl-L-arginine ethyl ester in a pH stat; format: biochemical; settings: BAEE substrate
Experimental: as §1

avidin-agarose = assay: Binding of biotinylated papain to avidin-agarose column; settings: 0.5 mg through a 1 ml column, pH 8.5 buffer
Description: The column was eluted with a pH 8.5 buffer and the absorbance of the eluting fractions were monitored at 280 nm.

human IgG = assay: Digestion of IgG to F(ab) by papain; format: biochemical
Experimental: Typically, 10 mg of IgG in the papain digestion buffer (0,025M sodium phosphate, 10 mM EDTA, 50 mM cysteine, pH 6.2) was added to either 0.5 ml of activated immobilized papain (0.5 mg equivalent of free papain) or 0.5 mg of activated soluble papain in the digestion buffer. The proteolytic cleavage was carried out for various time intervals at 37° C. At the end of each incubation period, the immobilized papain sample was centrifuged to remove the protease and the supernatant transferred to another tube containing 0.5 ml of pH 8.5 buffer. The gel was washed once with 1 ml of pH 8.5 buffer and supernatants combined. In the case of soluble papain, 0.4 mg of antipain or leupeptin in water was added to inactivate the papain and the mixture diluted with 0.5 ml of pH 8.5 buffer.
The separation of inactivated papain from the rest of mixture was carried by one of two methods. According to one procedure, an excess of anti-papain IgG (3 mg) was added to complex with the inactivated papain and the Fab fragments were separated from the rest of the mixture by passing through a 1 ml protein A cartridge equilibrated with pH 8.5 buffer. This procedure removed both the protease and its antibody in the form of antigen-antibody complexes. The column was eluted with 5 ml of pH 8.5 buffer to collect the F(ab) fragments and the absorbance of the various fractions was read at 280 nm. In an alternative procedure, the reaction mixture was first passed through an immobilized column of antipapain IgG to remove the inactivated papain and then passed through a 1 ml protein A cartridge equilibrated with pH 8.5 buffer. The Fc and the undigested immunoglobulins were eluted from the protein A cartridge with an elution buffer (pH 3.5).
After 30 minutes incubation at 37° C., 0.4 mg of antipain was added to inactivate the enzyme and then 0.5 ml of pH 8.5 buffer added to the mixture. […] The effluent was passed through a protein A column to adsorb the Fc and the undigested IgG. The F(ab) fragments came out unabsorbed from the protein A column. […]

[2] = read-out: inhibition of papain activity
[3] = PAPAIN (0.5 mg) + IgG (10 mg), inhibitor 0.4 mg
[4] = PAPAIN (0.5 mg), inhibitor 0.2 mg
[5] = PAPAIN (0.5 mg), inhibitor 0.4 mg

| Molecule | effect of the presence of IgG substrate on inhibitory activity (papain) | time to achieve 100% inhibition of papain activity (papain; inhibitor 0.05 mg/ml) [min] | time to inhibit 100% of papain activity (papain) [min] | inhibition at 50 µg/mL (papain; [2]) [%] | inhibition at 400 µg/mL (papain; [2]) [%] | Time (papain; PAPAIN (0.5 mg) + IgG (10 mg), inhibitor 0.05 mg) [min] | Time (papain; PAPAIN (0.5 mg) + IgG (10 mg), inhibitor 0.1 mg) [min] | Time (papain; [3]) [min] | Time (papain; PAPAIN (0.5 mg), inhibitor 0.05 mg) [min] | Time (papain; PAPAIN (0.5 mg), inhibitor 0.1 mg) [min] | Time (papain; [4]) [min] | Time (papain; [5]) [min] | Time (papain; PAPAIN (0.5 mg) + IgG (10 mg), inhibitor 0.2 mg) [min] | Activity (Unit/mg) [1] [Unit/mg] | % Binding to Avidin-Agarose (avidin-agarose) [%] | % Fab Generated (human IgG; 10 mg IgG, 0.5 mg enzyme, 37° C., 30 minutes) [%] | amount of F(ab) obtained relative to the immobilized form of the enzyme (human IgG; first 30 minutes) | digestion of the total IgG added to F(ab) (human IgG; human IgG, within the first 30 minutes, 37° C.) [%] |
| --- | --- | --- | --- | --- | --- | --- | --- | --- | --- | --- | --- | --- | --- | --- | --- | --- | --- | --- |
| CC(C)[C@H](NC(=O)[C@H](CCCNC(=N)N)NC(=O)N[C@@H](Cc1ccccc1)C(=O)O)C(=O)N[C@H](C=O)CCCNC(=N)N [ANTIPAIN, Antipain] ({Phe-CO}-Arg-Val-Arg-aldehyde) | did not affect | ≤ 15 | ≤ 1 | 100 | 100 | 15 | 4 | 1 | 15 | 4 | 1 | 1 |  |  |  |  |  |  |
| CC(=O)N[C@@H](CC(C)C)C(=O)N[C@@H](CC(C)C)C(=O)N[C@H](C=O)CCCNC(=N)N [LEUPEPTIN, Leupeptin] | did not affect |  | ≤ 1 |  | 100 |  |  | < 1 |  |  | < 1 | < 1 | < 1 |  |  |  |  |  |
| B1 |  |  |  |  |  |  |  |  |  |  |  |  |  | 7.8 | 0 | 75 | double | 75 |
